Several values for one entry are separate records, joined by “and”; a condition that tells them apart may be missing. Equal entries are not always repeated. Where two headings read alike, the source gives them in different places.
How the values were obtained:
rats [1] = conditions: for Motility Ratio: 30 minutes prior to charcoal bolus
5-HT2A = 5-HT2A (Homo sapiens, UniProt P28223); assay: biochemical; assay type: binding; conditions: read-out: maximum inhibition
D2 = D2 (Homo sapiens, UniProt P14416); assay: Receptor binding, D2; conditions: @ 100 nM; read-out: maximum inhibition
Chain of D2 (P14416 1-414 isoform P14416-2): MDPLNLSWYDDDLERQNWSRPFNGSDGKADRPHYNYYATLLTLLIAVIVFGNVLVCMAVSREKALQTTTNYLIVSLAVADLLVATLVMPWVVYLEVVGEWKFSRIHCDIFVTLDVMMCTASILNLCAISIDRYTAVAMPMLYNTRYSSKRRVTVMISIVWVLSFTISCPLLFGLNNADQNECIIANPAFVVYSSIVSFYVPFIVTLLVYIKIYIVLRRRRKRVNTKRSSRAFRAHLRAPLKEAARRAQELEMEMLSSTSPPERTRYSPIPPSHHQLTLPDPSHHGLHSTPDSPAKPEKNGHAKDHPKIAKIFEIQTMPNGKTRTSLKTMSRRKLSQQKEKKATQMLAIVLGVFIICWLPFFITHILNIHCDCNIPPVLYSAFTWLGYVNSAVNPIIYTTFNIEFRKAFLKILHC

D1 = D1 (Homo sapiens, UniProt P21728); assay: Receptor binding, D1; conditions: @ 100 nM; read-out: maximum inhibition
Chain of D1 (P21728 whole entry): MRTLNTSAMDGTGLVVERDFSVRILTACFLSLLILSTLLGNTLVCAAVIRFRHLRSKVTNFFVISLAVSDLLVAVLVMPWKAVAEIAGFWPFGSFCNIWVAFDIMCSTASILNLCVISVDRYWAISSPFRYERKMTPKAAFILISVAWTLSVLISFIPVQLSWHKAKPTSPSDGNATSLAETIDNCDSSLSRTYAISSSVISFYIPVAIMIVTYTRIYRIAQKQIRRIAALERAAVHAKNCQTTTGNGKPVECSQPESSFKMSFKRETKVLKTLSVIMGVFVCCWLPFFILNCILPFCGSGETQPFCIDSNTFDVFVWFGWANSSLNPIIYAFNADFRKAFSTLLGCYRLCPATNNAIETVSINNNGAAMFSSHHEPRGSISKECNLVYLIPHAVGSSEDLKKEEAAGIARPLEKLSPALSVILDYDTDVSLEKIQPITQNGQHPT

SERT = SERT (Homo sapiens, UniProt P31645); assay: biochemical; assay type: binding; conditions: read-out: maximum inhibition
Chain of SERT (P31645 whole entry, species assumed): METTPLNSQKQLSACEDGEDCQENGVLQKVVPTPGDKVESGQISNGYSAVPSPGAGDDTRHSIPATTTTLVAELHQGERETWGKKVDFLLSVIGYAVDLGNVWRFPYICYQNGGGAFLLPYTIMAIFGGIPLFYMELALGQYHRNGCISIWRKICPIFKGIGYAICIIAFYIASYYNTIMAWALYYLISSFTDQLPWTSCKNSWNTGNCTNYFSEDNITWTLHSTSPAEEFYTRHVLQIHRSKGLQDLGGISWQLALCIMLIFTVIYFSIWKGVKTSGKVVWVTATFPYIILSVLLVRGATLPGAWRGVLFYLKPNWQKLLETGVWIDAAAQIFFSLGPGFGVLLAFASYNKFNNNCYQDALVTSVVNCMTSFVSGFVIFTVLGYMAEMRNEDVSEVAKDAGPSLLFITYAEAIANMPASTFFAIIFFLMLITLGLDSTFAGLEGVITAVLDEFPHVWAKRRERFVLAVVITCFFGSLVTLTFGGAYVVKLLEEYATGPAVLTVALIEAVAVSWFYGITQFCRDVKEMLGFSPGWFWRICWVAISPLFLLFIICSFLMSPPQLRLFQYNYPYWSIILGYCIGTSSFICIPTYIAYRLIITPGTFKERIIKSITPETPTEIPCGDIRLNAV

[2] = system: tyrosine hydroxylase phosphorylation at Ser40; assay: CNS phosphoprotein profile, nucleus accumbens: TH; assay type: in vivo, mice; conditions: for increase in TH phosphorylation: mice nucleus accumbens, haloperidol 2 mg/kg, relative to vehicle-treated control
Description: (§1) A comprehensive molecular phosphorylation study is also carried out to examine the central nervous system (CNS) profile of the compound of Example 1. The extent of protein phosphorylation for selected key central nervous system proteins is measured in mice nucleus accumbens.
(§2) Mice were killed 30 minutes to 2 hours post-injection by focused microwave cranial irradiation, which preserves brain phosphoprotein as it exists at the time of death. Nucleus accumbens was then dissected from each mouse brain, sliced and frozen in liquid nitrogen. Samples were further prepared for phosphoprotein analysis via SDS-PAGE electrophoresis followed by phosphoprotein-specific immunoblotting, as described in Zhu H, et al., Brain Res. 2010 Jun. 25; 1342:11-23. Phosphorylation at each site was quantified, normalized to total levels of the protein (non-phosphorylated), and expressed as percent of the level of phosphorylation in vehicle-treated control mice.

male C57BL/6J mice = conditions: mouse, in vivo
[3] = system: NR2B phosphorylation at Tyr1472; assay: CNS phosphoprotein profile, nucleus accumbens: NR2B; assay type: in vivo, mice; conditions: 3 mg/kg; at 30-60 minutes
Description: as §1, §2

mice = assay: Mouse marble-burying study (OCD model); assay type: in vivo; conditions: 0.3 mg/kg orally 30 minutes prior, of 15 marbles
From the text: The marble burying test is used to measure repetitive and anxiety-related behavior in rodents. It is based on the observation that rats and mice will bury either harmful or harmless objects in their bedding, and it has been used as an animal model to measure the effect of pharmacological interventions in treatment of repetitive behavior disorders, such as OCD.
MPEP is a selective mGluR5 glutamate receptor antagonist. […] Mice in groups (1) are orally administered the vehicle, and mice in group (4) are given an intraperitoneal injection of MPEP just prior to the start of the test.
The test is conducted in rectangular cages with 4-5 cm of wood chip bedding in a room with the window shades lowered and the door closed to minimize distractions. Fifteen clean marbles are evenly spaced on top of the bedding in three rows of five marbles. One mouse is placed in each cage. The mouse in the cage is left undisturbed for 30 minutes. At the end of the test, the mouse is removed and the number of marbles buried to at least ⅔ of their depth is counted.

C57 mice = conditions: mouse, in vivo
rats [4] = assay: Pulmonary function in rats; assay type: in vivo; conditions: for RR: 60 minutes
[5] = male, Sprague-Dawley, rat, in vivo, sc, 0.3 mg/kg
[6] = rat, in vivo
male Sprague-Dawley rats = assay: Rat tolerance/dependence study (28 day)

Chain of 5-HT2A (P28223 whole entry): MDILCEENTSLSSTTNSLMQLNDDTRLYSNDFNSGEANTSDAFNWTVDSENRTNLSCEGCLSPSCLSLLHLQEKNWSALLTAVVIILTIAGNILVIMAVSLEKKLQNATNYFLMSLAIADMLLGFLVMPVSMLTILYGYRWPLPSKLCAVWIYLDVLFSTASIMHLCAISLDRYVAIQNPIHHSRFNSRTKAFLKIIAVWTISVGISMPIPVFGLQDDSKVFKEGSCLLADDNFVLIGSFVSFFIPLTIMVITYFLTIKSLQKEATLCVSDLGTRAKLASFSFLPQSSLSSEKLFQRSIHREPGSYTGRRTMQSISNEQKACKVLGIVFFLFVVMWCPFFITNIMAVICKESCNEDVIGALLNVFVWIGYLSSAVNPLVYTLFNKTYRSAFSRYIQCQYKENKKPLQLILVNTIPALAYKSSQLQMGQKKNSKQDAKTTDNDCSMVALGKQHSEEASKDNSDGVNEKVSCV

For O=C1CN2c3c(cccc3[C@@H]3CN(CCCc4n[nH]c5cc(F)ccc45)CC[C@@H]32)N1 [Example 2, (6bR,10aS)-8-(3-(6-fluoro-1H-indazol-3-yl)propyl)-6b,7,8,9,10,10a-hexahydro-1H-pyrido[3′,4′:4,5]pyrrolo[1,2,3-de]quinoxalin-2(3H)-one], the “Motility Ratio” value (rats [1]; 0.3 mg/kg SC) was 0.50, the “Motility Ratio” value (rats [1]; 1 mg/kg SC) was 0.55 and the “Motility Ratio” value (rats [1]; 3 mg/kg SC) was 0.50.
Work on CC(C)N1C(=O)CN2c3c(cccc31)[C@@H]1CN(CCCOc3ccc(F)cc3)CC[C@@H]12 [Example 22, (6bR,10aS)-8-(3-(4-fluorophenoxy)propyl)-3-isopropyl-6b,7,8,9,10,10a-hexa-hydro-1H-pyrido[3′,4′:4,5]pyrrolo[1,2,3-de]quinoxalin-2(3H)-one] yielded an inhibition at 0.1 µM (5-HT2A) of 81%, an inhibition at 0.1 µM (D2) of 39% and an inhibition at 0.1 µM (D1) of 70%. The inhibition at 0.2 µM (SERT) was 11%.
O=C1CN2c3c(cccc3[C@@H]3CN(CCCOc4ccccc4F)CC[C@@H]32)N1 [Example 21, (6bR,10aS)-8-(3-(2-fluorophenoxy)propyl)-6b,7,8,9,10,10a-hexahydro-1H-pyrido[3′,4′:4,5]pyrrolo[1,2,3-de]quinoxalin-2(3H)-one] gave an inhibition at 0.1 µM (5-HT2A) of 88%, an inhibition at 0.1 µM (D2) of 28% and an inhibition at 0.1 µM (D1) of 18%. It also gave an inhibition at 0.2 µM (SERT) of 5%.
In the case of Cc1nc2n(c(=O)c1CCN1CCC(c3noc4cc(F)ccc34)CC1)CCCC2 [risperidone], the “increase in TH phosphorylation” value [2] is reported as “greater than 500%”.
O=C1CN2c3c(cccc3[C@@H]3CN(CCCOc4ccc(I)cc4)CC[C@@H]32)N1 [Example 23, (6bR,10aS)-8-(3-(4-iodophenoxy)propyl)-6b,7,8,9,10,10a-hexahydro-1H-pyrido[3′,4′:4,5]pyrrolo[1,2,3-de]quinoxalin-2(3H)-one] showed an inhibition at 0.1 µM (5-HT2A) of 81%, an inhibition at 0.1 µM (D2) of 14% and an inhibition at 0.1 µM (D1) of 3%. For the same molecule, the inhibition at 0.2 µM (SERT) was 48%.
With CN1CC[C@]23c4c5ccc(O)c4O[C@H]2[C@@H](O)C=C[C@H]3[C@H]1C5 [Morphine, morphine, reference compound] the “reduction in gastric motility” value (rats [1]; 5 mg/kg SC) was roughly 50%.
With O=C1CN2c3c(cccc3[C@@H]3CN(CCCOc4cccc(F)c4)CC[C@@H]32)N1 [Example 20, (6bR,10aS)-8-(3-(3-fluorophenoxy)propyl)-6b,7,8,9,10,10a-hexahydro-1H-pyrido[3′,4′:4,5]pyrrolo[1,2,3-de]quinoxalin-2(3H)-one] the inhibition at 0.1 µM (5-HT2A) was 79%, the inhibition at 0.1 µM (D2) was 14% and the inhibition at 0.1 µM (D1) was 32%. It also gave an inhibition at 0.2 µM (SERT) of 8%.
In the case of Cc1ccc(OCCCN2CC[C@H]3[C@@H](C2)c2cccc4c2N3CC(=O)N4)cc1 [Example 25, (6bR,10aS)-8-(3-(p-tolyloxy)propyl)-6b,7,8,9,10,10a-hexahydro-1H-pyrido-[3′,4′:4,5]pyrrolo[1,2,3-de]quinoxalin-2(3H)-one], the inhibition at 0.1 µM (5-HT2A) is reported as 62%, the inhibition at 0.1 µM (D2) is reported as 21% and the inhibition at 0.1 µM (D1) is reported as 14%. The inhibition at 0.2 µM (SERT) was 10%.
O=C1CN2c3c(cccc3[C@@H]3CN(CCCOc4ccc(Br)cc4)CC[C@@H]32)N1 [Example 24, (6bR,10aS)-8-(3-(4-bromophenoxy)propyl)-6b,7,8,9,10,10a-hexahydro-1H-pyrido[3′,4′:4,5]pyrrolo[1,2,3-de]quinoxalin-2(3H)-one] showed an inhibition at 0.1 µM (5-HT2A) of 72%, an inhibition at 0.1 µM (D2) of 8% and an inhibition at 0.1 µM (D1) of 3%. It also gave an inhibition at 0.2 µM (SERT) of 44%.
For C=CCN1CC[C@]23c4c5ccc(O)c4O[C@H]2C(=O)CC[C@@]3(O)[C@H]1C5 [Naloxone, naloxone], the “Body Weight Loss” value (male C57BL/6J mice) was 0.5%, the Jumps (male C57BL/6J mice) was 0 and the “Paw Tremors” value (male C57BL/6J mice) was 0.87. The “Total Number of Signs” value (male C57BL/6J mice) was 2.2.
For O=C(CCCN1CCC(O)(c2ccc(Cl)cc2)CC1)c1ccc(F)cc1 [haloperidol], the “increase in TH phosphorylation” value [2] was “greater than 400%”.
With O=C1CN2c3c(cccc3[C@@H]3CN(CCCOc4ccc(F)cc4)CC[C@@H]32)N1 [Example 1, (6bR,10aS)-8-(3-(4-fluorophenoxy)propyl)-6b,7,8,9,10,10a-hexahydro-1H-pyrido[3′,4′:4,5]pyrrolo[1,2,3-de]quinoxalin-2(3H)-one] the “effect on tyrosine hydroxylase phosphorylation at Ser40” value ([2]; 3 mg/kg, at 30 minutes or 60 minutes) was “no significant effect”, the “effect on NR2B phosphorylation at Tyr1472” value [3] was “no significant effect” and the “Marbles Buried” value (mice) was 9.3. For the same molecule, the “Mean Behavior Rating (0-4)” value (C57 mice; po, 3 mg/kg) was 0.9 and 0.8 and 1.5, the “Mean Behavior Rating (0-4)” value (C57 mice; sc, 1 mg/kg) was 1.0 and 1.9 and 1.1 and the RR (rats [4]; 0.3 mg/kg SC) was 181 breaths/min. For the same molecule, the RR (rats [4]; 1.0 mg/kg SC) was 203 breaths/min, the RR (rats [4]; 3.0 mg/kg SC) was 190 breaths/min and the “respiratory rate, tidal volume and minute volume vs vehicle” value (rats [4]; 0.3, 1.0 and 3.0 mg/kg SC, 0, 15, 60, 120, 240 minutes) was “no significant differences”. For the same molecule, the peak plasma concentrations [5] was 15 to 38 ng/mL, the Bioavailability ([6]; iv, 1 mg/kg) was 100% and the t-1/2 ([6]; po, 10 mg/kg) was 3.1 h. The t-1/2 ([6]; sc, 3 mg/kg) was 9.5 h, the “effect on gastrointestinal motility” value (rats [1]; at a dose up to 3 mg/kg) was “no significant effect” and the “physical dependence upon cessation of dosing” value (male Sprague-Dawley rats; 0.3 and 3 mg/kg) was “not to produce a syndrome of physical dependence”. For the same molecule, the “tolerance during subcutaneous dosing for 28 days” value (male Sprague-Dawley rats; 0.3 and 3 mg/kg four times) was “does not produce tolerance”, the “effect on animal body weight, food and water intake or body temperature” value (male Sprague-Dawley rats; 0.3 and 3 mg/kg s.c. four times per day, on-dose or withdrawal phase) was “no significant effect” and the “main behavioral and physical signs” value (male Sprague-Dawley rats; higher dose (3 mg/kg)) was “hunched posture, subdued behavior, Straub tail, tail rattle and piloerection”. For the same molecule, the “predominant behavioral and physical effects, dosing phase” value (male Sprague-Dawley rats; repeated administration at 0.3 mg/kg) was “hunched posture, Straub tail and piloerection”.

From patent publication US12331052B2, “Organic compounds” (INTRA-CELLULAR THERAPIES, INC., priority 2018, dated 2025)
